Experiments:
[1] = tested on: Human immunodeficiency virus; experiment: Antiviral activity against Human immunodeficiency virus; assay type: functional, organism-based; details: Human immunodeficiency virus 1
[2] = tested on: Human immunodeficiency virus; experiment: Antiviral activity against Human immunodeficiency virus assessed as protection against virus-induced cytopathogenicity; assay type: functional; design: concentration or dose not given beside the values
Pichia kudriavzevii = experiment: Antifungal activity against Pichia kudriavzevii G03; assay type: functional
Nakaseomyces glabratus = experiment: Antifungal activity against Candida glabrata H05; assay type: functional
Candida albicans [3] = experiment: Antifungal activity against Candida albicans ATCC 10231; assay type: functional
Candida albicans [4] = experiment: Antifungal activity against Candida albicans; assay type: functional
Aspergillus fumigatus = experiment: Antifungal activity against Aspergillus fumigatus; assay type: functional
Escherichia coli = experiment: Antibacterial activity against Escherichia coli 2231; assay type: functional
Staphylococcus aureus = experiment: Antibacterial activity against Staphylococcus aureus 209P; assay type: functional

SMILES: Cc1cc(C2=CC(c3cccc([N+](=O)[O-])c3)N(C(=O)c3ccncc3)N2)ccc1O (stereo not given)
- IC50 [1]: > 11 µM
- Activity [2]: 40%
- inhibition zone (IZ) (Pichia kudriavzevii): <5 mm
- inhibition zone (IZ) (Nakaseomyces glabratus): <5 mm
- inhibition zone (IZ) (Candida albicans [3]): <5 mm
- inhibition zone (IZ) (Candida albicans [4]): <5 mm
- inhibition zone (IZ) (Aspergillus fumigatus): >15 mm
- inhibition zone (IZ) (Escherichia coli): >15 mm
- inhibition zone (IZ) (Staphylococcus aureus): >15 mm

SMILES: Cc1cc(C2=CC(c3ccc(Cl)cc3)N(C(=O)c3ccncc3)N2)ccc1O (stereo not given)
- IC50 [1]: > 36 µM
- Activity [2]: 42%
- inhibition zone (IZ) (Pichia kudriavzevii): <5 mm
- inhibition zone (IZ) (Nakaseomyces glabratus): <5 mm
- inhibition zone (IZ) (Candida albicans [3]): <5 mm
- inhibition zone (IZ) (Candida albicans [4]): >15 mm
- inhibition zone (IZ) (Aspergillus fumigatus): >15 mm
- inhibition zone (IZ) (Escherichia coli): >15 mm
- inhibition zone (IZ) (Staphylococcus aureus): >15 mm

SMILES: COc1ccc(C2C=C(c3ccc(O)c(C)c3)NN2C(=O)c2ccncc2)cc1 (stereo not given)
- IC50 [1]: > 125 µM
- Activity [2]: 24%
- inhibition zone (IZ) (Pichia kudriavzevii): <5 mm
- inhibition zone (IZ) (Nakaseomyces glabratus): <5 mm
- inhibition zone (IZ) (Candida albicans [3]): <5 mm
- inhibition zone (IZ) (Candida albicans [4]): <5 mm
- inhibition zone (IZ) (Aspergillus fumigatus): 5 mm
- inhibition zone (IZ) (Escherichia coli): 10 mm
- inhibition zone (IZ) (Staphylococcus aureus): 5 mm

SMILES: Cc1cc(C2=CC(c3ccc(F)cc3)N(C(=O)c3ccncc3)N2)ccc1O (stereo not given)
- IC50 [1]: > 68 µM
- Activity [2]: 8%
- inhibition zone (IZ) (Pichia kudriavzevii): <5 mm
- inhibition zone (IZ) (Nakaseomyces glabratus): <5 mm
- inhibition zone (IZ) (Candida albicans [3]): <5 mm
- inhibition zone (IZ) (Candida albicans [4]): >15 mm
- inhibition zone (IZ) (Aspergillus fumigatus): >15 mm
- inhibition zone (IZ) (Escherichia coli): >15 mm
- inhibition zone (IZ) (Staphylococcus aureus): >15 mm

SMILES: Cc1cc(C2=CC(c3ccc(N(C)C)cc3)N(C(=O)c3ccncc3)N2)ccc1O (stereo not given)
- IC50 [1]: 6 µM
- Activity [2]: 102%
- inhibition zone (IZ) (Pichia kudriavzevii): 5 mm
- inhibition zone (IZ) (Nakaseomyces glabratus): 10 mm
- inhibition zone (IZ) (Candida albicans [3]): 10 mm
- inhibition zone (IZ) (Candida albicans [4]): >15 mm
- inhibition zone (IZ) (Aspergillus fumigatus): >15 mm
- inhibition zone (IZ) (Escherichia coli): >15 mm
- inhibition zone (IZ) (Staphylococcus aureus): >15 mm

SMILES: COc1cc(C2C=C(c3ccc(O)c(C)c3)NN2C(=O)c2ccncc2)cc(OC)c1OC (stereo not given)
- IC50 [1]: > 66 µM
- Activity [2]: 26%
- inhibition zone (IZ) (Pichia kudriavzevii): <5 mm
- inhibition zone (IZ) (Nakaseomyces glabratus): <5 mm
- inhibition zone (IZ) (Candida albicans [3]): <5 mm
- inhibition zone (IZ) (Candida albicans [4]): 5 mm
- inhibition zone (IZ) (Aspergillus fumigatus): 5 mm
- inhibition zone (IZ) (Escherichia coli): 5 mm
- inhibition zone (IZ) (Staphylococcus aureus): 5 mm

SMILES: COc1ccc(C2C=C(c3ccc(O)c(C)c3)NN2C(=O)c2ccncc2)cc1OC (stereo not given)
- IC50 [1]: > 14 µM
- Activity [2]: 24%
- inhibition zone (IZ) (Pichia kudriavzevii): <5 mm
- inhibition zone (IZ) (Nakaseomyces glabratus): <5 mm
- inhibition zone (IZ) (Candida albicans [3]): <5 mm
- inhibition zone (IZ) (Candida albicans [4]): 5 mm
- inhibition zone (IZ) (Aspergillus fumigatus): 10 mm
- inhibition zone (IZ) (Escherichia coli): 10 mm
- inhibition zone (IZ) (Staphylococcus aureus): 10 mm

SMILES: Cc1cc(C2=CC(c3c(Cl)cccc3Cl)N(C(=O)c3ccncc3)N2)ccc1O (stereo not given)
- IC50 [1]: > 14 µM
- Activity [2]: 24%
- inhibition zone (IZ) (Pichia kudriavzevii): 5 mm
- inhibition zone (IZ) (Nakaseomyces glabratus): 10 mm
- inhibition zone (IZ) (Candida albicans [3]): >15 mm
- inhibition zone (IZ) (Candida albicans [4]): >15 mm
- inhibition zone (IZ) (Aspergillus fumigatus): >15 mm
- inhibition zone (IZ) (Escherichia coli): >15 mm
- inhibition zone (IZ) (Staphylococcus aureus): >15 mm

SMILES: Cc1cc(C2=CC(c3ccco3)N(C(=O)c3ccncc3)N2)ccc1O (stereo not given)
- IC50 [1]: 7 µM
- Activity [2]: 86%
- inhibition zone (IZ) (Pichia kudriavzevii): <5 mm
- inhibition zone (IZ) (Nakaseomyces glabratus): <5 mm
- inhibition zone (IZ) (Candida albicans [3]): <5 mm
- inhibition zone (IZ) (Candida albicans [4]): 5 mm
- inhibition zone (IZ) (Aspergillus fumigatus): >15 mm
- inhibition zone (IZ) (Escherichia coli): >15 mm
- inhibition zone (IZ) (Staphylococcus aureus): >15 mm

SMILES: Cc1cc(C2=CC(c3ccccc3)N(C(=O)c3ccncc3)N2)ccc1O (stereo not given)
- IC50 [1]: > 11 µM
- Activity [2]: 13%
- inhibition zone (IZ) (Pichia kudriavzevii): <5 mm
- inhibition zone (IZ) (Nakaseomyces glabratus): <5 mm
- inhibition zone (IZ) (Candida albicans [3]): <5 mm
- inhibition zone (IZ) (Candida albicans [4]): <5 mm
- inhibition zone (IZ) (Aspergillus fumigatus): 5 mm
- inhibition zone (IZ) (Escherichia coli): 5 mm
- inhibition zone (IZ) (Staphylococcus aureus): 5 mm

SMILES: CC1COc2c(N3CCN(C)CC3)c(F)cc3c(=O)c(C(=O)O)cn1c23 (stereo not given) [OFLOXACIN]
- inhibition zone (IZ) (Pichia kudriavzevii): <5 mm
- inhibition zone (IZ) (Nakaseomyces glabratus): <5 mm
- inhibition zone (IZ) (Candida albicans [3]): <5 mm
- inhibition zone (IZ) (Candida albicans [4]): <5 mm
- inhibition zone (IZ) (Aspergillus fumigatus): <5 mm
- inhibition zone (IZ) (Escherichia coli): >15 mm
- inhibition zone (IZ) (Staphylococcus aureus): >15 mm

SMILES: OC(Cn1cncn1)(Cn1cncn1)c1ccc(F)cc1F [FLUCONAZOLE]
- inhibition zone (IZ) (Pichia kudriavzevii): >15 mm
- inhibition zone (IZ) (Nakaseomyces glabratus): >15 mm
- inhibition zone (IZ) (Candida albicans [3]): >15 mm
- inhibition zone (IZ) (Candida albicans [4]): >15 mm
- inhibition zone (IZ) (Aspergillus fumigatus): >15 mm
- inhibition zone (IZ) (Escherichia coli): <5 mm
- inhibition zone (IZ) (Staphylococcus aureus): <5 mm

SMILES: Cc1ccnc2c1NC(=O)c1cccnc1N2C1CC1 [NEVIRAPINE]
- IC50 [1]: 0.1 µM
- Activity [2]: 98%

SMILES: Cc1cc(C2=CC(c3ccccc3Cl)N(C(=O)c3ccncc3)N2)ccc1O (stereo not given)
- IC50 [1]: > 53 µM
- Activity [2]: 24%
- inhibition zone (IZ) (Pichia kudriavzevii): <5 mm
- inhibition zone (IZ) (Nakaseomyces glabratus): <5 mm
- inhibition zone (IZ) (Candida albicans [3]): <5 mm
- inhibition zone (IZ) (Candida albicans [4]): <5 mm
- inhibition zone (IZ) (Aspergillus fumigatus): >15 mm
- inhibition zone (IZ) (Escherichia coli): >15 mm
- inhibition zone (IZ) (Staphylococcus aureus): >15 mm
